How the values were obtained:
Assay type in all cases: in vivo, mice
tumor models = assay: Xenograph models combined with radiation therapy (overall statement); details: compared with clofarabine
Source text: (§1) Xenograph models including DU-145 (prostate), NCI-H460 NSCL (lung), SF-295 CNS (glioblastoma), SR475HN (head and neck), PANC-1 (pancreatic), and HCT-116 (colon) are employed to study the effect of compounds according to the instant disclosure combined with radiation therapy. Mice are implanted with tumor fragments subcutaneously from an in vivo passage and the tumors are allowed to grow. Mice with tumors in a designated size range are selected for the studies.

DU-145 (prostate) = assay: DU-145 prostate xenograph model, clofarabine combined with radiation; details: clofarabine 30 mg/kg/dose, ip, d. 13-24, radiation 2 Gy
Source text: as §1

NCI-H460 NSCL (lung) = assay: NCI-H460 NSCL lung xenograph model, clofarabine combined with radiation; details: clofarabine 30 mg/kg/dose, ip, d. 8-17, radiation 3 Gy
Source text: as §1

[1] = system: SF-295 CNS (glioblastoma); assay: SF-295 CNS glioblastoma xenograph model, clofarabine combined with radiation; details: clofarabine 30 mg/kg/dose, ip, d. 8-17, radiation 3 Gy, d. 8, 11, 14, 17
Source text: as §1

SR475HN (head and neck) = assay: SR475HN head and neck xenograph model, clofarabine combined with radiation; details: SR475 head & neck, clofarabine 30 mg/kg/dose, ip, d. 19-30, radiation 2 Gy, d. 19-23, 26-30
Source text: as §1

PANC-1 (pancreatic) = assay: PANC-1 pancreatic xenograph model, clofarabine combined with radiation; details: clofarabine 30 mg/kg/dose, ip, d. 12-23, radiation 2 Gy
Source text: as §1

HCT-116 (colon) = assay: HCT-116 colon xenograph model, clofarabine combined with radiation; details: clofarabine 30mg/kg/dose, ip, d. 13-24, radiation 2 Gy
Source text: as §1

SMILES | radiosensitizing capacity (tumor models) | Tumor-Free Survivors/Total (DU-145 (prostate); d. 13-17, 20-24) | Growth Delay (T-C, days) (DU-145 (prostate); d. 13-17, 20-24, combination: clofarabine first, radiation 1 hour later) | Tumor-Free Survivors/Total (NCI-H460 NSCL (lung); d. 8, 11, 14, 17) | Growth Delay (T-C, days) (NCI-H460 NSCL (lung); d. 8, 11, 14, 17, based on time to 3 tumor doublings) | Growth Delay (T-C, days) [1] | Tumor-Free Survivors/Total [1] | Tumor-Free Survivors/Total (SR475HN (head and neck)) | Growth Delay (T-C, days) (SR475HN (head and neck); based on 2 tumor doublings) | Tumor-Free Survivors/Total (PANC-1 (pancreatic); d. 12-16, 19-23) | Growth Delay (T-C, days) (PANC-1 (pancreatic); d. 12-16, 19-23, based on 2 tumor doublings) | Tumor-Free Survivors/Total (HCT-116 (colon); d. 13-17, 20-24) | Growth Delay (T-C, days) (HCT-116 (colon); d. 13-17, 20-24, based on 3 tumor doublings)
Nc1ccn([C@@H]2O[C@H](CO)[C@@H](O)C2(F)F)c(=O)n1 [gemcitabine] | tracked with the clofarabine results | – | – | – | – | – | – | – | – | – | – | – | –
Nc1nc(Cl)nc2c1ncn2[C@@H]1O[C@H](CO)[C@@H](O)[C@@H]1F [Clofarabine] | – | 0/6 | 4.3 days | 0/6 | 4.6 days | -0.8 days | 0/6 | 0/6 | 18.2 days | 0/6 | 17.2 days | 0/6 | 24.2 days

Reference: US9757380B2 (Southern Research Institute, priority 2007, dated 2017)
